In the OPERA property sets (Mansouri et al. 2018) one finds logP data, which are given here for 15 compounds.

For the compound `CCOC(=O)CN1C(=O)CC1Oc1ccc(C(=O)C=Cc2ccccc2)cc1` (stereo not given), the logP was 3.3.
In the case of `CC(C)(C)OC(=O)CN1C(=O)CC1Oc1ccc2ccccc2c1` (stereo not given) it was 3.6.
The figure for `CCOC(=O)CN1C(=O)CC1Oc1ccc2ccccc2c1` (stereo not given) is 2.8.
`O=C1CC(Sc2ccc3ccccc3c2)N1` (stereo not given) yielded a lipophilicity (logP) of 2.64.
In the case of `O=C1CC(Oc2ccccc2C(=O)c2ccccc2)N1` (stereo not given) it was 1.83.
In the case of `O=C1CC(Oc2ccc(C(=O)C=Cc3ccccc3)cc2)N1` (stereo not given) it was 2.56; in that of `CCOC(=O)CN1C(=O)CC1Sc1ccc2ccccc2c1` (stereo not given), 3.4; in that of `O=C1CC(Oc2ccc(-c3ccccc3)cc2)N1` (stereo not given), 2.61.
Take `O=C1CC(Oc2cccc(C(=O)OCc3ccccc3)c2)N1` (stereo not given): the logP stood at 2.83.
In the case of `O=C1CC(Sc2ccc(Cl)cc2)N1` (stereo not given) it was 2.31; in that of `O=C1CC(Oc2ccc(C(=O)c3ccccc3)cc2)N1` (stereo not given), 2.14.
Take `O=C1CC(Sc2ccccc2C(=O)OCc2ccccc2)N1` (stereo not given): the logP amounted to 2.62.
The figure for `O=C1CC(Oc2ccc3ccccc3c2)N1` (stereo not given) is 2.29; for `CCOC(=O)CN1C(=O)CC1Oc1ccc(C(=O)c2ccccc2)cc1` (stereo not given) it is 3; for `O=C1CC(Oc2cccc3ccccc23)N1` (stereo not given) it is 2.66.

A word on the logP: it is a log measure of how a compound divides between an organic and an aqueous phase. Low readings indicate a more hydrophilic compound, high ones a more lipophilic compound.
